Bridges are numbered along the chain shown (N, C = ends). Roman numbers before positions name the chains, in order. Where no end group is shown, it is not given here.

For series [1] the following is noted: prior studies [34, 35, 45]; cited from earlier work.
A further series deals with cytokines. Conditions: in vitro and in vivo; prior study [45]; cited from earlier work.
The test system of a further series is MDA-MB-231 cells. Kind of series: In vitro mRNA transfection with HK polyplexes (luciferase mRNA, luciferase activity). In kind it is cell-based. To be noted: mRNA 1 μg, 24 h. The protocol:
FIG. 1. Comparison of H3K(+H)4b and H3K4b peptides as carriers of mRNA. To form the HK polyplexes, the mRNA (1 μg) was mixed with 3 different ratios of the HK ([…]) polymer for 30 minutes. The HK polyplexes were then added to the cells for 24 h before the luciferase activity was measured. ****, H3K(+H)4b vs H3K4b, P<0.0001.
In vitro mRNA Transfection. Several HK polymers were examined for their ability to carry a luciferase-expressing mRNA (CleanCap Firefly Luciferase mRNA, Trilink Biotechnologies, Inc, San Diego, CA) into MDA-MB-231 cells (America Type Tissue Culture, Manassas, VA). In brief, 3×10^4 cells were plated into a 24-well plate containing 500 μl of DMEM and 10% fetal bovine serum (ThermoFisher Scientific, Waltham, MA). After 24 h, when the cells were 60 to 80% confluent, the media in each well was changed to Opti-MEM (ThermoFisher Scientific). To prepare HK polyplexes, mRNA (1 μg) in 50 μl of Opti-MEM was briefly mixed well with one of the HK polymers (4 to 12 μg) and maintained at room temperature for 30 min. This polyplex was then added dropwise to the cells. After four h, the Opti-MEM media was removed and replaced with 0.5 ml of DMEM/10% serum (0.5 ml). Twenty-four hours later, the cells were lysed, and the luciferase activity (Promega Corporation, Madison, WI) was measured.
To obtain the data in Table 4, luciferase-expressing mRNA (1 μg) in 50 μl of Opti-MEM was briefly mixed with one of the HK polymers (4, 8, or 12 μg) and maintained at room temperature for 30 min. The resulting polyplexes were added dropwise to the MDA-NM-231 cells and after four h, the Opti-MEM media was removed and replaced with DMEM/10% serum. Twenty-four hours later, the cells were lysed, and the luciferase activity was measured

A further series concerns mRNA. Description: Heparin displacement assays (gel electrophoresis and Sybr Gold dye intercalation). In kind it is physicochemical. Conditions: HK:mRNA 4:1 wt/wt. The protocol:
FIG. 4. Heparin Displacement Assays. After HK polyplexes were formed (wt:wt; HK:mRNA; 4 μg:1 μg), different concentrations of heparin […] were incubated with these for 30 min. A. Gel Retardation. The HK polyplexes were loaded on the agarose gel (1%), and electrophoresis was carried out and stained with Sybr Gold. B. Fluorescent dye intercalation. After the HK polyplexes were formed and incubated with several concentrations of heparin, the Sybr Gold nucleic acid dye was incubated with the HK polyplexes for 5 mins. Fluorescence was then measured by a microplate fluorimeter (λex=497 nm, λem=520 nm) (SynergyMx, BioTek). *, P<0.05; ***, P<0.001; H3K4b or H2K vs. H3K(+H)4b.
Heparin Displacement Assays. Heparin displacement assays of HK polyplexes were done with the dye intercalation assay and with gel electrophoresis. A fluorescent assay assessed polyplexes of HK polymer and mRNA (4:1 wt/wt ratio; polymer:mRNA) formed in RNAse/DNAase free water (Corning, Manassas, VA). HK polyplexes were prepared as described previously, followed by the addition of diluted Syber Gold. For detection, working dilutions of the polyplexes (1/5 of volume), water (3/5) and Sybr Gold dye (1/5, 0.2×) were incubated for 5 minutes, and fluorescence was measured by a fluorimeter (Ex=497 nm, Em=520 nm) (SynergyMx, BioTek, Winooski, VT). The control sample was prepared with the same amount of mRNA, water, and Sybr Gold dye. For the heparin displacement, instead of water, heparin salt (Sigma-Aldrich, St. Louis, MO) solutions at different concentrations (0.5, 1, 1.5, 2, 3 μg/μl) were used, and the HK polyplexes were incubated at 37° C. for 30 min before addition of Sybr Gold.
Displacement of mRNA from HK polyplexes with heparin was also done with gel electrophoresis. After HK polyplexes were formed, different concentrations of heparin (0.5, 1.0, 1.5, 2.0, 3.0 μg/μl; volume 20 μl) were incubated with these at 37° C. for 30 min. The polyplexes were then loaded on the agarose gel (1%; 10× BlueJuice Gel loading buffer), and electrophoresis was carried out and stained with SG as described above. […]

A short description of series [2]: Acid-base titration of HK polymer solutions. In kind it is physicochemical. Conditions: pH titration curves, 5 mg/ml. The protocol:
FIG. 2. Titration of different HK peptide solutions. Solutions of polymers (5 mg/ml) (H2K4b, H3K4b, H3K(+H)4b, and H4K4b) were adjusted to pH 3 (initial volume—1 ml) and then […] aliquots of 0.05 N NaOH were stepwise added and the pH measured.
Acid-Base Titration. After polymer solutions (e.g. containing one or more of H2K4b, H3K4b, H3K(+H)4b, and H4K4b) were adjusted to pH 3.0 (5 mg/mil; initial volume—1 mil), aliquots (5 μl) of NaOH (0.05 N) were stepwise added with the pH measured (FiveEasy™ meter; InLab Solids Pro-ISM pH electrode, Mettler Toledo, Columbus, OH). Titration was stopped at about pH 9.0.

Series [3] can be described thus: Cell viability assay (trypan blue exclusion). In kind it is cell-based. Conditions: human, MDA-MB-231 cells, HK polymer 4 μg or polyplex (4 μg HK; 1 μg mRNA), then 19 h DMEM/10% FBS. As for the experimental part:
Cell Viability Assay. MDA-MB-231 cells were seeded at 5.0×10^4/well in a 24-tissue culture plate and incubated overnight in DMEM supplemented with 10% FBS serum. The media was then changed to Opti-MEM and the cells were treated with either the HK polymer (4 μg) or the HK polyplex (4 μg HK; 1 μg mRNA) for 5 h. After the media was changed to DMEM/10% FBS for 19 h, the cell viability was measured using the trypan blue cell exclusion assay (Trypan Blue solution, 0.4%, Sigma-Aldrich, St. Louis, MO).
After the medium was changed to Opti-MEM in cell cultures of the MDA-MB-231 cells used in the experiment described above, either the HK polymer (4 μg) or the HK polyplex (4 μg HK; 1 μg mRNA) was added dropwise to the cells and incubated for 5 h. The media was then changed to DMEM/10% FBS for 19 h and cell viability was determined using the trypan cell exclusion assay.

Series [4] is described as follows: Particle size, polydispersity index (PDI) and zeta potential of polyplexes (Zetasizer). Format: physicochemical. The protocol: Particle size, polydispersity index (PDI), and zeta potential. The size, PDI, and zeta potential were determined with the Zetasizer (Malvern, Westborough, Mass.) and analyzed with software provided by the instrument manufacturer (Zetasizer software, version 6.2). Using dynamic light scattering at a 90° angle, the size of the particles were reported as the Z-average diameter from the intensity-weighted size distribution. Prior to the measurements, the samples were equilibrated to 25° C. for 2 min. Each measurement had at least ten sub-runs under the automatic mode of the software. The particle size, PDI, and zeta potential data point represent the mean±SD of three measurements. After mixing HK peptides (4 μg) and mRNA (1 μg) in 100 μl of defined media (Opti-MEM, water, or DMEM/8% FBS) for 30 min, 100 μl of additional defined media was added to the polyplex solution (total volume 200 μl) to measure the size and PDI. To determine the zeta potential, 800 μl more of the media was added (total volume 1000 μl), mixed gently, and then added to the disposable zeta cell.
Because different stabilities were observed between the H3K4b and H3K(+H)4b polyplexes, whether the sizes of these polyplexes varied based on the media in which they were prepared was investigated. […] H3K(+H)4b and H3K4b peptides (4 μg) in complex with mRNA (1 μg) were mixed with either Opti-MEM, water, or DMEM/8% FBS […]. After 1 h, the size, PDI, and zeta potential were measured.

Where [5] appears, read: polyplex HK 4 μg:mRNA 1 μg in DMEM/8% FBS.
The mark [6] stands for this setting: polyplex HK 4 μg:mRNA 1 μg in Opti-MEM.
[7] abbreviates: polyplex HK 4 μg:mRNA 1 μg in Water.

As usually defined, the viability is the share of living cells, or the viability signal relative to a control. Lower therefore signals a greater loss of cells. In the case of “I: KHHHKHHHKHHHKHHHKKKK-NH2 / II: KHHHKHHHKHHHKHHHK / III: KHHHKHHHKHHHKHHHK / IV: KHHHKHHHKHHHKHHHK (amide I:18-IV:C, I:19-III:C, I:20-II:C) [H3K4b]”, the “carrier of siRNA (in words)” value in series [1] is “effective carriers of siRNA”. For the same substance, the “cytokine induction by siRNA polyplex (in words)” value in the series on cytokines is “induced cytokines to a significantly greater degree”. In addition, the “RLU/μg-Protein (luciferase activity)” value in the series with MDA-MB-231 cells (ratio mRNA:polymer 1:4 (wt:wt)) worked out at 156.8 ± 41.8 RLU/μg-Protein; with MDA-MB-231 cells (ratio mRNA:polymer 1:8 (wt:wt)) it was 62.1 ± 13.2 RLU/μg-Protein; with MDA-MB-231 cells (ratio mRNA:polymer 1:12 (wt:wt)), 18.1 ± 4.0 RLU/μg-Protein. In the series on mRNA, the “binding/release of mRNA and polyplex stability on exposure to heparin (in words)” value is “released by the H3K4b polymer more readily than the H3K(+H)4b polymer”. The “buffering profile / buffering capacity (in words)” value in series [2] is given as “minimal differences in their buffering profile”. Also, in series [3], the viability at 5 h came to 95.6%. Also, the PDI is listed as 0.421 in series [4] (setting [5]), 0.466 in series [4] (setting [6]) and 0.171 in series [4] (setting [7]). In addition, the values for the Size in series [4] (setting [5]), in series [4] (setting [6]) and in series [4] (setting [7]) were 578 ± 80.5 nm, 2030.7 ± 117.3 nm and 199.9 ± 0.8 nm, respectively. Moreover, the “Zeta Potential” value in series [4] (setting [5]) is recorded as −12.1 ± 2.22 mV; in series [4] (setting [6]), −4.20 ± 2.78 mV; in series [4] (setting [7]), 16.47 ± 0.74 mV.

The record behind these values is patent US20230313181A1, “HISTIDINE-LYSINE POLYMERS AND METHODS FOR DELIVERING MRNA USING THE SAME” (UNIVERSITY OF MARYLAND, BALTIMORE, priority 2019, published 2023).
